Assay: Solubility of the hole-transfer agent in triglyceride oleate
Assay type: physicochemical
Conditions: 25° C., g per 100 g of triglyceride oleate
Description: Here, the term “solubility in triglyceride oleate (% by weight)” means the amount of a solvent (hole-transfer agent) (g) with reference to 100 g of triglyceride oleate.

Row | SMILES | HTM Solubility [w %]
1 | CC(C)c1ccc(N(c2ccccc2)c2cccc(N(c3ccccc3)c3ccc(C(C)C)cc3)c2)cc1 [HTM-1] | 11.1
2 | CCc1cccc(C)c1N(c1ccccc1)c1ccc(/C=C/c2ccc(/C=C/c3ccc(N(c4ccccc4)c4c(C)cccc4CC)cc3)cc2)cc1 [HTM-8] | 2.1
3 | Cc1ccccc1N(c1ccc(-c2ccc(N(c3ccccc3C)c3ccccc3/C=C/c3ccccc3)cc2)cc1)c1ccccc1/C=C/c1ccccc1 [HTM-9] | 37.0
4 | CCCCc1ccc(N(c2ccc(C)cc2)c2c(N(c3ccc(C)cc3)c3ccc(CCCC)cc3)c3ccccc3c3ccccc23)cc1 [HTM-10] | 2.8

Source: patent US20070111118A1, “Electrophotographic photoconductor and image-forming apparatus” (priority 2005, published 2007)
